US8455480B2, “Active agent combinations having insecticidal and acaricidal properties” (Bayer Cropscience AG, priority 2007, dated 2013)

Key:
[1] = system: Phaedon cochleariae larvae; test: Phaedon cochleariae larvae test (sprayed cabbage leaves); conditions: for Destruction in % after 2 d: single active substance
Myzus persicae = Myzus persicae test (spray on infested cabbage leaves); type: in vivo; conditions: single active substance
[2] = Phaedon cochleariae, in Brassica oleracea, 144 h, read-out: Destruction in % after 6 d

SMILES | pest or weed control at 4 g/ha [1, 2] | Destruction in % after 1 d (Myzus persicae; 0.16 g/ha) | Destruction in % after 6 d (Myzus persicae; 0.16 g/ha) | pest or weed control at 100 g/ha [1, 2] | other results
C/C(=N\C#N)N(C)Cc1ccc(Cl)nc1 [Acetamiprid] | – | – | – | – | Destruction in % after 2 d ([1]; 4 g/ha): 0%; Destruction in % after 6 d (Myzus persicae; 0.032 g/ha): 0%
CN/C(=N\[N+](=O)[O-])NCc1cnc(Cl)s1 [Clothianidin] | 33% | 0% | 10% | – | –
O=C1C=C(N(CCF)Cc2ccc(Cl)nc2)CO1 [Compound (I-4), 4-{[(6-chloropyrid-3-yl)methyl](2-fluoroethyl)amino}furan-2(5H)-one] | – | – | – | 0% | Destruction in % after 1 d (Myzus persicae; 4 g/ha): 50%; Destruction in % after 6 d (Myzus persicae; 4 g/ha): 70%
O=C1C=C(N(Cc2ccc(Cl)nc2)CC(F)F)CO1 [Compound (I-5), 4-{[(6-chloropyrid-3-yl)methyl](2,2-difluoroethyl)amino}furan-2(5H)-one] | – | – | – | 50% | pest or weed control at 20 g/ha [1, 2]: 0%; Destruction in % after 2 d ([1]; 100 g/ha): 33%; Destruction in % after 6 d (Myzus persicae; 0.8 g/ha): 30%
CN(Cc1cnc(Cl)c(F)c1)C1=CC(=O)OC1 [Compound (I-6), 4-{[(6-chloro-5-fluoropyrid-3-yl)methyl](methyl)amino}furan-2(5H)-one] | – | – | – | 0% | Destruction in % after 2 d ([1]; 100 g/ha): 0%
CN/C(=N\[N+](=O)[O-])NCC1CCOC1 (stereo not drawn) [Dinotefuran] | 0% | – | – | – | –
O=[N+]([O-])/N=C1\NCCN1Cc1ccc(Cl)nc1 [Imidacloprid] | 0% | 20% | – | – | –
N#C/N=C1\SCCN1Cc1ccc(Cl)nc1 [Thiacloprid] | 17% | 20% | 0% | – | Destruction in % after 2 d ([1]; 4 g/ha): 0%
CN1COCN(Cc2cnc(Cl)s2)/C1=N/[N+](=O)[O-] [Thiamethoxam] | 17% | – | 30% | – | Destruction in % after 6 d (Myzus persicae; 0.032 g/ha): 0%
